According to patent publication US11311538B2, “Compositions and methods for targeting cancers” (YALE UNIVERSITY, priority 2018, dated 2022):

How the values were obtained:
[1] = tested on: shFH-expressing HEK293FT tumor xenografts; experiment: Tumor growth delay assay, shFH HEK293FT xenografts; type: in vivo, mouse
Source text: (§1) In vivo efficacy studies: HEK293FT xenografts. Female athymic nu/nu mice (Hsd:Athymic Nude-Foxnlnu, Envigo) were used for all in vivo xenograft studies. Mice were quarantined for at least 1 week before experimental manipulation. Tumors were formed using shRNA-expressing versions of the tumorigenic human embryonic kidney cell-derived line, HEK293FT. HEK293FT is a subline of HEK293 cells that has been transformed by expression of SV40 Large T-antigen. […], or shCTRL (non-targeted control) expressing HEK293FT cells were implanted subcutaneously (5×10^6 cells in 0.1 cc PBS) in the right flank of nude mice. Two efficacy studies were conducted. In one, mice were randomized into treatment and non-treated groups (10 mice/group) at day 3, with treatment initiation 4 days post implant. In a second independent in vivo efficacy study, mice were injected as above with 10 mice per group, and treatment was started only once the tumor volumes reached […]. For both studies, mice were visually observed daily and tumors were measured three times per week by calipers to determine tumor volume using the formula: Volume=L×W×W×0.532. Mice were fed with a grain based rodent diet containing Doxycycline at 200 mg/kg (Bioserv, Catalog #S3888). BMN-673 was solubilized in DMSO and diluted with PBS containing 10% dimethylacetamide (Sigma-Aldrich) and 6% Solutol (Sigma). BMN-673 (0.5 mg/kg, 0.2 cc), or vehicle (0.2 cc) was administered by oral gavage once daily for the duration of the experiment. Mean (geometric) tumor volume (mm^3) was plotted over time to monitor tumor growth. P-values were determined by ANOVA with repeated measures. In vivo efficacy studies: UOK 262 xenografts. Female athymic nu/nu mice (Hsd:Athymic Nude-Foxnlnu, Envigo) were used for all in vivo xenograft studies. Mice were quarantined for at least 1 week before experimental manipulation. UOK 262 cells were implanted subcutaneously using 5×10^6 cells in 0.1 cc PBS mixed with 0.1 cc of Corning Matrigel Matrix (Cat. No. 354234) per animal. Mice were randomized at day 3 day into two groups (n=10/group). […]

[2] = tested on: HLRCC UOK 262 xenograft tumors; experiment: Tumor growth delay assay, UOK 262 xenografts; type: in vivo, mouse; settings: BMN-673 0.5 mg/kg gavage daily, started at average tumor size 250 mm^3 (FIG. 4M)
Source text: In vivo efficacy studies: HEK293FT xenografts. Female athymic nu/nu mice (Hsd:Athymic Nude-Foxnlnu, Envigo) were used for all in vivo xenograft studies. Mice were quarantined for at least 1 week before experimental manipulation. Tumors were formed using shRNA-expressing versions of the tumorigenic human embryonic kidney cell-derived line, HEK293FT. HEK293FT is a subline of HEK293 cells that has been transformed by expression of SV40 Large T-antigen. […], or shCTRL (non-targeted control) expressing HEK293FT cells were implanted subcutaneously (5×10^6 cells in 0.1 cc PBS) in the right flank of nude mice. Two efficacy studies were conducted. In one, mice were randomized into treatment and non-treated groups (10 mice/group) at day 3, with treatment initiation 4 days post implant. In a second independent in vivo efficacy study, mice were injected as above with 10 mice per group, and treatment was started only once the tumor volumes reached […]. For both studies, mice were visually observed daily and tumors were measured three times per week by calipers to determine tumor volume using the formula: Volume=L×W×W×0.532. Mice were fed with a grain based rodent diet containing Doxycycline at 200 mg/kg (Bioserv, Catalog #S3888). […] P-values were determined by ANOVA with repeated measures. […]

UOK 262 = experiment: Clonogenic survival assay in cell lines of renal origin; type: cell-based, human; settings: FIG. 4C (BMN-673), FIG. 8J (mitomycin C)
poly-ADP-ribose (PAR) = experiment: Poly-ADP-Ribose ELISA in xenograft tumors; type: in vivo, mouse; settings: 24 h post single dose (FIG. 4K)
Description: Tumors developed with mice on a rodent diet including doxycycline just as in the in vivo efficacy studies. Once tumors were at 80 mm^3 mice were gavaged with BMN-673 at 1 or 10 mg/kg or vehicle. Tumors were collected 24 hours later for and frozen at −80° C. The concentrations of BMN-673 in tumor samples were determined using liquid chromatography with tandem mass spectrometry (LC-MS/MS). In brief, an aliquot (30 μL) tumor homogenate was protein precipitated with volumes of methanol, and 5 μL of supernatant was injected into the LC-MS/MS system. LC-MS/MS analyses were performed on a Waters LC-MS/MS system consisting a Waters AQUITY UPLC system coupled with a TQ-XS triple quadrupole mass spectrometer (Milford, Mass., USA). […] BMN673 was monitored using the positive electrospray ionization mode at the most sensitive and specific mass transition, m/z 381.0>228.8. The linear calibration curve was established at BMN673 concentration range of 5-5000 nM in mouse serum. The precision and accuracy of quality control samples were within generally acceptable criteria for bioanalytical methods. Poly-ADP-Ribose ELISA. Poly-ADP-Ribose ELISA was performed per manufacturer's protocol using the PARP in vivo Pharmacodynamic Assay II Kit (Trevigen). 2 μg of protein input was used per replicate and luminescence reading were converted to pg PAR/μg protein using a standard curve. Statistics and Reproducibility. […]

[3] = tested on: shSDHB-expressing HEK293FT tumor xenografts; experiment: Tumor growth delay assay, shSDHB HEK293FT xenografts; type: in vivo, mouse
Source text: as §1

[4] = two separate sets of in vivo efficacy studies, 0.5 mg/kg oral gavage once daily

Cn1ncnc1[C@H]1c2n[nH]c(=O)c3cc(F)cc(c23)N[C@@H]1c1ccc(F)cc1 [BMN-673, BMN-673 (Talazoparib)]
tumor growth vs vehicle, FH-deficient tumors ([1]; treatment after tumors reached 95-150 mm^3, 0.5 mg/kg oral gavage once daily (FIG. 4H)): inhibited the growth | tumor growth vs vehicle, shFH tumors ([1]; treatment beginning four days after implantation, 0.5 mg/kg oral gavage once daily (FIG. 4E)): robust suppression of tumor growth | growth of FH-deficient tumors [1, 4]: significantly inhibited the growth | tumor growth delay, UOK 262 xenografts [2]: substantial growth delay | sensitivity of UOK 262 relative to FH-proficient cell lines of renal origin, clonogenic survival (UOK 262): markedly more sensitive | PAR levels by ELISA, SDHB knockdown vs shCTRL tumors (poly-ADP-ribose (PAR)): reduced to the same extent | tumor growth vs vehicle, SDH-deficient tumors ([3]; treatment after tumors reached 95-150 mm^3, 0.5 mg/kg oral gavage once daily (FIG. 4G)): inhibited the growth | tumor growth vs vehicle, shSDHB tumors ([3]; treatment beginning four days after implantation, 0.5 mg/kg oral gavage once daily (FIG. 4D)): robust suppression of tumor growth | growth of SDHB-deficient tumors [3, 4]: significantly inhibited the growth
